The text below walks through data of ChEMBL document CHEMBL5247598 (Eur J Med Chem, 2022).

Activity calls are given as the source filed them. The rule behind the calls is not given here.

In series [1] the test system is NCI/ADR-RES. In words: Induction of apoptosis in human NCI-ADR-RES cells assessed as necrotic cells at 8 uM incubated for 48 hrs by Annexin V-FITC and DAPI staining based flow cytometry (Rvb= 0.55 %). It is filed as functional.
For series [2], the system named is NCI/ADR-RES. Put plainly: Induction of apoptosis in human NCI-ADR-RES cells assessed as viable cells at 8 uM incubated for 48 hrs by Annexin V-FITC and DAPI staining based flow cytometry (Rvb= 97.9 %). As to conditions: read-out: Activity. It is filed as functional. Background: In flow cytometry, cells or beads pass a laser one at a time.
Series [3] concerns NCI/ADR-RES. Put plainly: Induction of apoptosis in human NCI-ADR-RES cells assessed as late apoptotic cells at 8 uM incubated for 48 hrs by Annexin V-FITC and DAPI staining based flow cytometry (Rvb= 0.66 %). It is filed as functional.
For series [4], the system named is NCI/ADR-RES. In words: Antiproliferative activity against human multidrug resistant NCI-ADR-RES cells overexpressing P-gp assessed as reduction in cell viability incubated for 48 hrs by MTT assay. It is filed as functional, cell-based. Background: Tetrazolium dyes change colour on reduction, which living cells bring about.
Series [5] deals with NCI/ADR-RES. In words: Induction of apoptosis in human NCI-ADR-RES cells assessed as viable cells at 8 uM incubated for 24 hrs by Annexin V-FITC and DAPI staining based flow cytometry (Rvb= 97.9 %). Type of series: functional. As to conditions: read-out: Activity.
For series [6], the system named is NCI/ADR-RES. Put plainly: Induction of apoptosis in human NCI-ADR-RES cells assessed as early apoptotic cells at 8 uM incubated for 24 hrs by Annexin V-FITC and DAPI staining based flow cytometry (Rvb= 0.89 %). Type of series: functional.
The test system of series [7] is NCI-ADR-RES. Put plainly: Activation of PI3K/AKT signaling pathway in human NCI-ADR-RES cells assessed as increase in PI3K phosphorylation at 3 uM incubated for 24 to 48 hrs by Western blot analysis. It is filed as cell-based. As to conditions: filed as activator, time 24-48 hrs. (In general: A western blot detects proteins with antibodies after separation by electrophoresis.)

Series [8] deals with NCI/ADR-RES. In words: Induction of apoptosis in human NCI-ADR-RES cells assessed as early apoptotic cells at 8 uM incubated for 48 hrs by Annexin V-FITC and DAPI staining based flow cytometry (Rvb= 0.89 %). It is filed as functional.
In series [9] the test system is NCI-ADR-RES. Put plainly: Activation of PI3K/AKT signaling pathway in human NCI-ADR-RES cells assessed as increase in AKT phosphorylation at 3 uM incubated for 24 to 48 hrs by Western blot analysis. Type of series: cell-based. As to conditions: filed as activator, time 24-48 hrs.
In series [10] the test system is NCI/ADR-RES. Put plainly: Induction of apoptosis in human NCI-ADR-RES cells assessed as late apoptotic cells at 8 uM incubated for 24 hrs by Annexin V-FITC and DAPI staining based flow cytometry (Rvb= 0.66 %). Type of series: functional.
Series [11] relates to NCI/ADR-RES. Put plainly: Induction of apoptosis in human NCI-ADR-RES cells assessed as necrotic cells at 8 uM incubated for 24 hrs by Annexin V-FITC and DAPI staining based flow cytometry (Rvb= 0.55 %). Type of series: functional.
The nature of series [12]: Cytotoxicity against mouse MPC-5 cells assessed as inhibition of cell growth at 50 uM incubated for 48 hrs by MTT assay. Type of series: toxicity, cell-based. As to conditions: mpc-5, 48 h.
A further series concerns P-gp. Put plainly: Therapeutic index, ratio of IC50 for cytotoxicity against human HEK293T cells to EC50 for reversal of P-gp-mediated multidrug resistance in human NCI-ADR-RES cells. As to conditions: read-out: Ratio IC50/EC50. Type of series: toxicity, cell-based.
In series [13] the test system is HCT-8. Put plainly: Antiproliferative activity against human HCT-8 cells assessed as inhibition of cell growth at 50 uM incubated for 48 hrs by MTT assay. Type of series: functional, cell-based.
Series [14] concerns MCF7. Put plainly: Antiproliferative activity against human MCF7 cells assessed as reduction in cell viability incubated for 48 hrs by MTT assay. As to conditions: MCF7, 48 h, read-out: IC50. Type of series: functional, cell-based.
For series [15], the system named is HCT-8. Put plainly: Antiproliferative activity against human Taxol resistant HCT-8 cells assessed as inhibition of cell growth at 50 uM incubated for 48 hrs by MTT assay. It is filed as functional, cell-based.
For a further series, the system named is A549/TR. In words: Antiproliferative activity against human Taxol resistant A549 cells assessed as inhibition of cell growth at 50 uM incubated for 48 hrs by MTT assay. Type of series: functional, cell-based.
The test system of the next series is L02. In words: Cytotoxicity against human L02 cells assessed as inhibition of cell growth at 50 uM incubated for 48 hrs by MTT assay. Type of series: toxicity, cell-based. As to conditions: l02, 48 h.
The subject of series [16] is MCF7. Put plainly: Antiproliferative activity against human MCF7 cells assessed as inhibition of cell growth at 50 uM incubated for 48 hrs by MTT assay. It is filed as functional, cell-based.
Series [17] concerns HEK-293T. Put plainly: Cytotoxicity against human HEK293T cells assessed as inhibition of cell growth at 50 uM incubated for 48 hrs by MTT assay. Type of series: toxicity, cell-based.
The test system of series [18] is NCI/ADR-RES. In words: Reversal fold, ratio of doxorubicin IC50 to doxorubicin IC50 in presence of 10 uM test compound for reversal of P-gp-mediated multidrug resistance in human NCI-ADR-RES cells incubated for 48 hrs by MTT assay. Type of series: functional.
A further series deals with A549. In words: Antiproliferative activity against human A549 cells assessed as inhibition of cell growth at 50 uM incubated for 48 hrs by MTT assay. Type of series: functional, cell-based.
Series [19] has as its system NCI/ADR-RES. In words: Antiproliferative activity against human multidrug resistant NCI-ADR-RES cells assessed as inhibition of cell growth at 50 uM incubated for 48 hrs by MTT assay. It is filed as functional, cell-based.
The nature of series [20]: Cytotoxicity against human HEK293T cells assessed as reduction in cell viability incubated for 48 hrs by MTT assay. Type of series: toxicity, cell-based, HEK-293T.
Series [21] deals with NCI/ADR-RES. In words: Reversal of P-gp-mediated multidrug resistance in human NCI-ADR-RES cells assessed as potentiation of doxorubicin-induced cytotoxicity incubated for 48 hrs by MTT assay. Type of series: functional, cell-based.
Series [22] has as its system HEK-293T. In words: Cytotoxicity against human HEK293T cells assessed as cell survival rate at 10 uM incubated for 48 hrs by MTT assay. Type of series: toxicity, cell-based.

On to `COc1cccc2c1C(=O)c1c(O)c3c(c(O)c1C2=O)C[C@@](O)(C(=O)CO)C[C@@H]3O[C@H]1C[C@H](N)[C@H](O)[C@H](C)O1` [DOXORUBICIN], for which the Activity with NCI/ADR-RES [1] worked out at 1.47%; with NCI/ADR-RES [3], 4.03%; in the series with NCI/ADR-RES [6], 0.64%; in the series with NCI/ADR-RES [8] it was 1.78%; in the series on NCI/ADR-RES [10] it was 0.74%; in the series on NCI/ADR-RES [11] it was 0.39%. Also, the results for the viability at 8 µM in the series with NCI/ADR-RES [2] and in the series with NCI/ADR-RES [5] were 92.8% and 98.3%, respectively. Further, the IC50 with NCI/ADR-RES [4] stood at 58.5 µM. For the same molecule, the outcome with NCI-ADR-RES [7] and in the series with NCI-ADR-RES [9] was Active.
Regarding `COc1cc2c(cc1OC)CN(CCc1ccc(NC(=O)c3cc(OC)c(OC)cc3NC(=O)c3cnc4ccccc4c3)cc1)CC2`, the Activity result (in series [12]; with L02; in the series with HEK-293T [17]; in the series with HEK-293T [22]) was “Toxic” each time. Also, the selectivity ratio with P-gp was determined as 278. Also, the IC50 in the series with NCI/ADR-RES [4] was determined as 98.5 µM; with MCF7 [14], 8.11 µM. Moreover, the outcome in the series with HCT-8 [13], with HCT-8 [15], in the series on A549/TR, in the series on MCF7 [16], in the series with A549 and with NCI/ADR-RES [19] was Active. For the same molecule, in the series on NCI/ADR-RES [18], the “Ratio IC50” value worked out at 47.2. Also, the IC50 at 48 h in series [20] turned out to be 5.22 µM. Further, the EC50 with NCI/ADR-RES [21] was 0.0187 µM.

In general, IC50 refers to the concentration needed to halve the response being measured. For orientation: EC50 means the concentration that produces a half-maximal response.
